Data reported in the METLIN SMRT retention time set (Domingo-Almenara et al. 2019).

Experiment: gradient 5% acetonitrile 3 min, to 50% in 2 min, to 85% in 15 min, held 3 min, 100 µL/min
Details: column: Zorbax Extend-C18 2.1 x 50 mm; eluents: water / acetonitrile, 0.1% formic acid
In short: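 Pure standards were run in mixtures of ~100 molecules by HPLC coupled to a quadrupole time-of-flight mass spectrometer. The column was a Zorbax Extend-C18 (2.1 × 50 mm, 1.8 μm) at 100 μL/min, with water and acetonitrile each containing 0.1% formic acid, in positive and negative ionization mode. Dead and dwell volumes were 40 μL and 900 μL. Retention time was taken from computationally picked adduct peaks, each manually inspected, with data collected over 3 months.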

SMILES | RP-LC retention time [s]
Cn1cc(S(=O)(=O)N2CCC(C(=O)N3CCCCC3)CC2)cc1C(=O)N1CCCC1 | 688
COCCn1cc(CCNC(=O)Nc2ccc(C)cc2)c2cccnc21 | 718
Cc1ccc(-c2nccn3cc(C(=O)N4CCN(C(C)C)CC4)nc23)cc1 | 620
CC(=O)c1ccc(Nc2c(C(=O)OC(C)C)cnc3nc(C)ccc23)cc1 | 616
CCS(=O)(=O)N1CCCc2cc(C(=O)NC3CCCCC3)ccc21 | 656
Cc1cccc(C2CCCN2C(=O)c2c(Br)cnn2C)c1 (stereo unspecified) | 908
O=C(NCc1cscn1)C1CCN(S(=O)(=O)c2cccc(C(F)(F)F)c2)CC1 | 787
CCN1C(=O)c2cccnc2Sc2cc(NC(=O)c3ccc(F)c(F)c3)ccc21 | 874
O=C(N1CCc2ccccc2C1)C1(c2ccccc2)CCOCC1 | 891
O=C(C(=O)N1CCN(c2ccccc2Cl)CC1)c1c[nH]c2ccccc12 | 940
Cc1cc(NC(=O)N(C)CC2CCOC2)ccc1Br (stereo unspecified) | 798
COc1ccc(-c2nc3ccccn3c2Nc2ccc(C)cc2)cc1 | 701
COC[C@@H]1CN(S(=O)(=O)c2ccccc2C)C[C@H]1c1ccccn1 | 637
Cc1sc(C)c(S(=O)(=O)N2CCN(c3ccccc3)CC2)c1-c1cc(C(F)(F)F)on1 | 1300
CSc1cccc(NC(=O)Cn2c(=O)n(-c3ccccc3)c(=O)c3c2cc(C)n3C)c1 | 861
O=C(c1ccccc1F)N1CCCn2cc(-c3ccccc3F)nc21 | 792
Cc1ccc(CNC(=O)C2CCCN(c3nc4ccsc4c(=O)n3-c3ccc(C)cc3)C2)cc1 (stereo unspecified) | 977
O=c1n(Cc2cccc(F)c2)nc2c(S(=O)(=O)N3CCc4ccccc4C3)cccn12 | 938
Cc1ccc(NC(=O)NC2CCN(c3ccc(F)cc3)C2=O)c(C)c1 (stereo unspecified) | 778
O=C(c1ccc(=O)[nH]c1)N1CC(c2nc(-c3ccccn3)no2)C1 | 666
CCOc1ccc(-n2nnnc2CNC(=O)Nc2cccs2)cc1 | 722
COc1c(C(=O)Nc2ccc(N3CCOCC3)cc2)sc2ccc(Cl)cc12 | 1110

SMILES | RP-LC retention time [s]
COc1ccc(CC(=O)N2CCN(c3cc(C)n4cnnc4n3)CC2)cc1Cl | 611
CCc1nc2cc(-c3noc(Cc4c[nH]c5ccccc45)n3)ccc2o1 | 1020
O=c1ccc(-c2ccccc2Cl)nn1Cc1nc(-c2ccc3c(c2)OCO3)no1 | 996
Cn1c(C(=O)NCc2ccccc2)cc2sc(Cl)cc21 | 1060
Cc1nnc(N2CCC(C(=O)NCCN(C)C)CC2)c2nn(-c3ccc(Cl)cc3)c(C)c12 | 586
Cc1ccc(N2CC(c3noc(-c4cccc(Cl)c4)n3)CC2=O)cc1 (stereo unspecified) | 1090
Cc1cc(C)n(-c2nc(C)c(C(=O)Nc3ccc(F)cc3)s2)n1 | 1060
O=C(Nc1ccc(-c2cn3cccnc3n2)cc1)c1cccc(Cl)c1 | 664
CNc1ncnc2c1cnn2-c1ccc(F)cc1 | 657
O=C(c1cccn1Cc1noc(C2CC2)n1)N1CCN(c2ccccc2)CC1 | 946
CCC(C)NC(=O)N1CCCN(C2=NS(=O)(=O)C(c3ccccc3)=C2C)CC1 (stereo unspecified) | 748
CCCNC(=O)CCc1nc2ccccc2n(CC(=O)NCc2ccccc2Cl)c1=O | 794
O=C1COc2ccc(-c3csc(NC(=O)c4ccc(Br)cc4)n3)cc2N1 | 946
CCn1c(=O)c(N2CCN(S(=O)(=O)c3ccc(Cl)s3)CC2)nc2ccncc21 | 739
CCNC(=O)C1CCN(C(=O)N2C[C@H]3C[C@H](C2)[C@H]2CCCC(=O)N2C3)CC1 | 599
CCCc1cc(N2CCN(C(=O)COc3ccc(F)cc3)CC2)nc2nnc(C)n12 | 645
N#Cc1cccc(C(=O)N2CCOc3ccccc32)c1 | 843
CCOc1ccc(S(=O)(=O)N2CCC(c3nc(C(=O)N4CCCC4)c(C)o3)CC2)cc1 | 941
Cc1cc2n(n1)CCC(=O)N2CCCC(=O)NCCCc1ccccc1 | 691
COC(=O)c1ccccc1Nc1c(-c2ccccc2)nc2cnccn12 | 962
CCCn1cc(S(=O)(=O)NCc2ccccc2F)c2cccnc21 | 861
COc1ccccc1CCNC(=O)CSc1nc(=O)n(Cc2ccco2)c2c1CCC2 | 739

SMILES | RP-LC retention time [s]
Cc1ccc(-n2nc3c(=O)n(C(C)C(=O)NC4CC4)nc(C)c3c2C)cc1 (stereo unspecified) | 744
CC1CCc2ccccc2N1C(=O)c1cccs1 (stereo unspecified) | 913
Cc1nc2ccn(Cc3ccco3)c(=O)c2cc1C(=O)NCCc1ccco1 | 720
COc1ccc(C2(C(=O)N3CCCCCCN(C)C(=O)[C@@H]4CCC[C@@H]43)CC2)cc1 | 922
O=C(c1ccc(Br)cc1)N1CCc2nc(-c3ccccc3)ncc2C1 | 1000
Cc1cccc(-c2noc(CSc3nc4cc5c(cc4c(=O)n3Cc3ccccc3)OCO5)n2)c1 | 1330
O=C(Nc1ccccc1)Nc1ccc2nnc(C3CC3)n2c1 | 703
COc1ccc(-c2nnc(Cc3nc(-c4ccc(C)cc4)no3)o2)cc1OC | 762
CCCNS(=O)(=O)c1ccc(Cl)c(-c2nnc(-c3ccc(OC)cc3)o2)c1 | 1010
O=C(COc1ccc2c(c1)OCO2)N1CCN(c2cc(N3CCCCC3)ncn2)CC1 | 587
O=C(Nc1cccc(Cl)c1)c1nnc(CCCC(=O)N2CCN(c3ccccn3)CC2)s1 | 669
O=C(c1ccccn1)N1CCCC(OCc2nc(C3CC3)no2)C1 (stereo unspecified) | 619
Cc1ccc(-n2nc(C)c(S(=O)(=O)N3CCC(C(=O)NC4CC4)CC3)c2C)cc1 | 789
CS(=O)(=O)Nc1ccc2nc(S(C)(=O)=O)sc2c1 | 661
Cc1ccc(C2Cn3nnc(-c4nc(-c5cccnc5)no4)c3CO2)c(C)c1 (stereo unspecified) | 1040
CC(C)Oc1ccc(CNC(=O)CCCN2C(=O)CCn3nc(-c4cccn4C)cc32)cc1 | 833
Cc1oc(C2CCN(S(=O)(=O)c3ccccc3F)CC2)nc1C(=O)N(C)C | 781
COC(=O)c1ccccc1S(=O)(=O)N1CCc2c(c(-c3nnc(-c4ccccc4F)o3)nn2C)C1 | 873
Cc1cc(C)c(NS(=O)(=O)c2ccc(Cl)c(C(=O)O)c2)c(C)c1 | 829
COc1cccc(N2CCN(c3ccnc(SCC(=O)Nc4ccc(F)cc4)n3)CC2)c1 | 768
O=C(Nc1cn(-c2ccc(C(=O)N3CCN(c4ccccc4)CC3)cc2)cn1)C1CC1 | 728
CCn1cnc(S(=O)(=O)N2CCCC(C(=O)Nc3ccc(F)cc3C)C2)c1 (stereo unspecified) | 726
